Data taken from ChEMBL document CHEMBL1201862, “PubChem BioAssay data set” (2004).
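Test compounds were applied to cells in 96-well plates for 48 hours at 5 doses. GI50 = concentration required for 50% inhibition of growth.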 Active and inactive are the calls of the source. Cut-off read from the data, not from the text of the source: active = GI50 up to about 1.1 µM and inactive = higher.

Experiments:
Assay in all cases: inhibition of tumour cell growth, NCI panel, 48 h
K562 = test system: K562
OVCAR-3 = test system: OVCAR-3
HOP-62 = test system: HOP-62
LOX IMVI = test system: LOX IMVI
UACC-62 = test system: UACC-62
OVCAR-8 = test system: OVCAR-8
HL-60 = test system: HL-60
RPMI-8226 = test system: RPMI-8226
M19-MEL = test system: M19-MEL
M14 = test system: M14
DMS-114 = test system: DMS-114
UO-31 = test system: UO-31
CCRF-CEM = test system: CCRF-CEM
NCI-H23 = test system: NCI-H23
A498 = test system: A498
DMS-273 = test system: DMS-273
Malme-3M = test system: Malme-3M
SW-620 = test system: SW-620
786-0 = test system: 786-0
HCC 2998 = test system: HCC 2998
MOLT-4 = test system: MOLT-4
TK-10 = test system: TK-10
SK-MEL-28 = test system: SK-MEL-28
COLO 205 = test system: COLO 205
NCI-H226 = test system: NCI-H226
OVCAR-4 = test system: OVCAR-4
NCI-H460 = test system: NCI-H460
UACC-257 = test system: UACC-257
HCT-116 = test system: HCT-116
SF-295 = test system: SF-295
SF-268 = test system: SF-268
HCT-15 = test system: HCT-15
SNB-19 = test system: SNB-19
A549 = test system: A549
EKVX = test system: EKVX
IGROV-1 = test system: IGROV-1
LXFL 529 = test system: LXFL 529
HT-29 = test system: HT-29
U-251 = test system: U-251
SK-MEL-2 = test system: SK-MEL-2
SNB-75 = test system: SNB-75
DLD-1 = test system: DLD-1
KM-20L2 = test system: KM-20L2
SF-539 = test system: SF-539
ACHN = test system: ACHN
SR = test system: SR
RXF 393 = test system: RXF 393
XF498 = test system: XF498
SK-MEL-5 = test system: SK-MEL-5
SN12C = test system: SN12C
NCI-H522 = test system: NCI-H522
OVCAR-5 = test system: OVCAR-5
CAKI-1 = test system: CAKI-1
SNB-78 = test system: SNB-78
KM12 = test system: KM12
HOP-92 = test system: HOP-92
SK-OV-3 = test system: SK-OV-3

SMILES: CC1(OCc2ccccc2)C(=O)N2C1N(C(=O)OCc1ccccc1)CC2(C)C (stereo unspecified)
- GI50 (K562): 42.8 µM (inactive)
- GI50 (OVCAR-3): > 100 µM (inactive)
- GI50 (HOP-62): 82.4 µM (inactive)
- GI50 (LOX IMVI): 46.6 µM (inactive)
- GI50 (UACC-62): 38.5 µM (inactive)
- GI50 (OVCAR-8): 34.8 µM (inactive)
- GI50 (HL-60): 29.4 µM (inactive)
- GI50 (RPMI-8226): 27.5 µM (inactive)
- GI50 (M19-MEL): 32.1 µM (inactive)
- GI50 (M14): 66.8 µM (inactive)
- GI50 (DMS-114): 31.3 µM (inactive)
- GI50 (UO-31): 31.4 µM (inactive)
- GI50 (CCRF-CEM): 35.1 µM (inactive)
- GI50 (NCI-H23): 35.1 µM (inactive)
- GI50 (A498): 56.9 µM (inactive)
- GI50 (DMS-273): 53.6 µM (inactive)
- GI50 (Malme-3M): 80 µM (inactive)
- GI50 (SW-620): > 100 µM (inactive)
- GI50 (786-0): > 100 µM (inactive)
- GI50 (HCC 2998): > 100 µM (inactive)
- GI50 (MOLT-4): 28.2 µM (inactive)
- GI50 (TK-10): > 100 µM (inactive)
- GI50 (SK-MEL-28): > 100 µM (inactive)
- GI50 (COLO 205): 94.6 µM (inactive)
- GI50 (NCI-H226): 41.4 µM (inactive)
- GI50 (OVCAR-4): > 100 µM (inactive)
- GI50 (NCI-H460): 42.6 µM (inactive)
- GI50 (UACC-257): 36.6 µM (inactive)
- GI50 (HCT-116): 69.8 µM (inactive)
- GI50 (SF-295): 38.5 µM (inactive)
- GI50 (SF-268): > 100 µM (inactive)
- GI50 (HCT-15): 68.1 µM
- GI50 (SNB-19): 54.2 µM (inactive)
- GI50 (A549): 38.8 µM (inactive)
- GI50 (EKVX): 67.8 µM (inactive)
- GI50 (IGROV-1): 57.3 µM (inactive)
- GI50 (LXFL 529): 31.6 µM (inactive)
- GI50 (HT-29): 67.8 µM (inactive)
- GI50 (U-251): 49.3 µM (inactive)
- GI50 (SK-MEL-2): 69.3 µM (inactive)
- GI50 (SNB-75): 32.4 µM (inactive)
- GI50 (DLD-1): 54.3 µM (inactive)
- GI50 (KM-20L2): 55.8 µM (inactive)
- GI50 (SF-539): > 100 µM (inactive)
- GI50 (ACHN): 61.1 µM (inactive)
- GI50 (SR): 30.5 µM (inactive)
- GI50 (RXF 393): 67.5 µM (inactive)
- GI50 (XF498): 24.8 µM (inactive)
- GI50 (SK-MEL-5): 17.9 µM (inactive)
- GI50 (SN12C): > 100 µM (inactive)

SMILES: CCCCCC(=O)N[C@H]1CCc2cc(O)c(O)c(O)c2-c2ccc(SC)c(=O)cc21
- GI50 (K562): 6.47 µM (inactive)
- GI50 (OVCAR-3): 35.2 µM (inactive)
- GI50 (NCI-H522): 15.1 µM (inactive)
- GI50 (HOP-62): 47 µM (inactive)
- GI50 (LOX IMVI): 23.1 µM (inactive)
- GI50 (UACC-62): 31.6 µM (inactive)
- GI50 (OVCAR-5): > 100 µM (inactive)
- GI50 (OVCAR-8): 26.1 µM (inactive)
- GI50 (HL-60): 20.5 µM (inactive)
- GI50 (RPMI-8226): 70.5 µM (inactive)
- GI50 (CAKI-1): 28.3 µM (inactive)
- GI50 (M19-MEL): 19.9 µM (inactive)
- GI50 (M14): 19 µM (inactive)
- GI50 (SNB-78): 65.2 µM (inactive)
- GI50 (DMS-114): 15.5 µM (inactive)
- GI50 (UO-31): > 77.6 µM (inactive)
- GI50 (KM12): 39.6 µM (inactive)
- GI50 (CCRF-CEM): 23.2 µM (inactive)
- GI50 (NCI-H23): 21.6 µM (inactive)
- GI50 (A498): 29 µM (inactive)
- GI50 (DMS-273): 32.5 µM (inactive)
- GI50 (Malme-3M): > 80.5 µM (inactive)
- GI50 (SW-620): 17.8 µM (inactive)
- GI50 (786-0): 44.5 µM (inactive)
- GI50 (HCC 2998): 32.9 µM (inactive)
- GI50 (MOLT-4): 27.8 µM (inactive)
- GI50 (TK-10): > 100 µM (inactive)
- GI50 (SK-MEL-28): 48.3 µM (inactive)
- GI50 (COLO 205): 23.3 µM (inactive)
- GI50 (NCI-H226): 28.2 µM (inactive)
- GI50 (OVCAR-4): 18.1 µM (inactive)
- GI50 (NCI-H460): 38.4 µM (inactive)
- GI50 (UACC-257): 37.5 µM (inactive)
- GI50 (HCT-116): 18.8 µM (inactive)
- GI50 (SF-295): 23.4 µM (inactive)
- GI50 (SF-268): 38.7 µM (inactive)
- GI50 (HCT-15): 22.5 µM
- GI50 (SNB-19): 43.3 µM (inactive)
- GI50 (A549): 36.7 µM (inactive)
- GI50 (EKVX): > 63.1 µM (inactive)
- GI50 (IGROV-1): 38.4 µM (inactive)
- GI50 (LXFL 529): 21.5 µM (inactive)
- GI50 (HT-29): 32.7 µM (inactive)
- GI50 (U-251): 27.9 µM (inactive)
- GI50 (SK-MEL-2): 33 µM (inactive)
- GI50 (SNB-75): 32.2 µM (inactive)
- GI50 (DLD-1): 19.6 µM (inactive)
- GI50 (KM-20L2): 27.6 µM (inactive)
- GI50 (SF-539): 20.9 µM (inactive)
- GI50 (ACHN): > 100 µM (inactive)
- GI50 (SR): 22.8 µM (inactive)
- GI50 (RXF 393): 38.9 µM (inactive)
- GI50 (HOP-92): 25.7 µM (inactive)
- GI50 (SK-MEL-5): 28.4 µM (inactive)
- GI50 (SN12C): 20.3 µM (inactive)
- GI50 (SK-OV-3): 23.3 µM (inactive)
